Key:
[1] = system: immature castrated rats, ventral prostate (VP) and seminal vesicles (SV); assay: Wet prostate weight assay, AR antagonist assay; format: in vivo, rat; conditions: for EC50 (organ weight increase): immature castrated rats
From the text: Biol. Med., 83, 175 (1953); P. C.
The basis of this assay is the fact that male sexual accessory organs, such as the prostate and seminal vesicles, play an important role in reproductive function. These glands are stimulated to grow and are maintained in size and secretory function by the continued presence of serum testosterone (T), which is the major serum androgen (>95%) produced by the Leydig cells in the testis under the control of the pituitary luteinizing hormone (LH) and follicle stimulating hormone (FSH). […] Adrenal androgens also contribute about 20% of total DHT in the rat prostate, compared to 40% of that in 65-year-old men. F. Labrie et al. Clin. Invest. Med., 16, 475-492 (1993). However, this is not a major pathway, since in both animals and humans, castration leads to almost complete involution of the prostate and seminal vesicles without concomitant adrenalectomy. […] […] […] Since the male sex organs are the tissues most responsive to modulation of the androgen activity, this model is used to determine the androgen dependent growth of the sex accessory organs in immature castrated rats.
Five days after surgery these castrated rats (60-70 g, 23-25 day-old) are dosed for 3 days. […] Animals are dosed (v/w) at 0.5 ml of vehicle/100 g body weight. […] Control vehicle • 2.
At the end of the 3-day treatment, the animals are sacrificed, and the ventral prostate weighed. To compare data from different experiments, the sexual organs weights are first standardized as mg per 100 g of body weight, and the increase in organ weight induced by TP was considered as the maximum increase (100%). ANOVA followed by one-tailed Student or Fischer's exact test is used for statistical analysis.
The gain and loss of sexual organ weight reflect the changes of the cell number (DNA content) and cell mass (protein content), depending upon the serum androgen concentration. See Y. Okuda et al., J. Urol., 145, 188-191 (1991), the disclosure of which is herein incorporated by reference. Therefore, measurement of organ wet weight is sufficient to indicate the bioactivity of androgens and androgen antagonist.

[2] = system: castrated rats, levator ani, seminal vesicles (SV) and prostate; assay: Levator ani & wet prostate weight assay, AR agonist assay; format: in vivo, rat; conditions: for EC50 (organ weight increase): castrated rats
From the text: The activity of compounds of the present invention as AR agonists is investigated in an immature male rat model, a recognized test of anabolic effects in muscle and sustaining effects in sex organs for a given compound, as described in L. G. Hershberger et al., Proc. Soc. Expt. Biol. Med., 83, 175 (1953); B. L. Beyler et al, “Methods for evaluating anabolic and catabolic agents in laboratory animals”, J. Amer. Med. Women's Ass., 23, 708 (1968); H. Fukuda et al., “Investigations of the levator ani muscle as an anabolic steroid assay”, Nago Dai. Yak. Ken. Nem. 14, 84 (1966) the disclosures of which are herein incorporated by reference.
The basis of this assay lies in the well-defined action of androgenic agents on the maintenance and growth of muscle tissues and sexual accessory organs in animals and man. Androgenic steroids, such as testosterone (T), have been well characterized for their ability to maintain muscle mass. Treatment of animals or humans after castrations with an exogenous source of T results in a reversal of muscular atrophy. The effects of T on muscular atrophy in the rat levator ani muscle have been well characterized. M. Masuoka et al., “Constant cell population in normal, testosterone deprived and testosterone stimulated levator ani muscles” Am. J. Anat. 119, 263 (1966); Z. Gori et al., “Testosterone hypertrophy of levator ani muscle of castrated rats. I. Quantitative data” Boll.-Soc. Ital. Biol. Sper. 42, 1596 (1966); Z. Gori et al., “Testosterone hypertrophy of levator ani muscle of castrated rats. II. Electron-microscopic observations” Boll.-Soc. Ital. Biol. Sper. 42, 1600 (1966); A. Boris et al., Steroids 15, 61 (1970). As described above, the effects of androgens on maintenance of male sexual accessory organs, such as the prostate and seminal vesicles, is well described. Castration results in rapid involution and atrophy of the prostate and seminal vesicles. This effect can be reversed by exogenous addition of androgens. […]

[3] = molecular target: endogenous glucocorticoid receptor (Homo sapiens, UniProt P04150); conditions: concentration of ≦10 μM; 10 ng/ml PMA; A549 cells
Description: Cells are plated the day before the assay at approximately 40000 cells/well. […] Activity is measured by analysis in a luminometer as compared to control experiments treated with buffer or dexamethasome.

endogenous glucocorticoid receptor, sequence (P04150 whole entry): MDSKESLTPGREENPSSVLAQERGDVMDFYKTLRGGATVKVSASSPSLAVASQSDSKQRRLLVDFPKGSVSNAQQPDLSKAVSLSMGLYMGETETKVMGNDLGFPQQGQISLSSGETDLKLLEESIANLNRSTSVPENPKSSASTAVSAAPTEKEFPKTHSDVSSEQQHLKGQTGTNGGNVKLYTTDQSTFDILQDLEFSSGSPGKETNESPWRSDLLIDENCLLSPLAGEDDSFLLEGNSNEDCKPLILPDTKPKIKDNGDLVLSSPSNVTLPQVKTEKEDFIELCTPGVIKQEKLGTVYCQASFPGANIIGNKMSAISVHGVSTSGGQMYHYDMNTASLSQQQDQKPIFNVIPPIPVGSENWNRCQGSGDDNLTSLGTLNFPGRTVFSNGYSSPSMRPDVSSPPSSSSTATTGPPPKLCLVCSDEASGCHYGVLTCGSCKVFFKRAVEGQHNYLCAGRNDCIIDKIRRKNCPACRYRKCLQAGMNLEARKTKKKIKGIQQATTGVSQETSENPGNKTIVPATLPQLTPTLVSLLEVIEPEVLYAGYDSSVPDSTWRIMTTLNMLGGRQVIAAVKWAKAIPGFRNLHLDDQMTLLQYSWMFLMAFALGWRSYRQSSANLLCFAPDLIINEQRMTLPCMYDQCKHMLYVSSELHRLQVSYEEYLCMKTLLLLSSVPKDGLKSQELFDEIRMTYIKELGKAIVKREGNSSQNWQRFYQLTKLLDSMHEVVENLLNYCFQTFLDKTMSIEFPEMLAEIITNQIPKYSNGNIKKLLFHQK

SMILES	EC50 (organ weight increase) [1]	EC50 (organ weight increase) [2]	ED80 ([1]; immature castrated rat model)	potency higher than free T ([1]; rat, in vivo)	potency higher than free T ([2]; rat, in vivo)	suppression of activity (% inhibition of the reporter system vs buffer control with PMA) [3]
C[C@]12CC[C@H]3[C@@H](CCC4=CC(=O)CC[C@@]43C)[C@@H]1CC[C@@H]2O [T, testosterone]	about 1 mg	about 1 mg				
CCC(=O)O[C@H]1CC[C@H]2[C@@H]3CCC4=CC(=O)CC[C@]4(C)[C@H]3CC[C@]12C [TP, testosterone propionate]	~0.03 mg	~0.03 mg	0.1 mg	10-30 fold	10-30 fold	
C[C@@H]1C[C@H]2[C@@H]3CCC4=CC(=O)C=C[C@]4(C)[C@@]3(F)[C@@H](O)C[C@]2(C)[C@@]1(O)C(=O)CO [dexamethasone]						65%

Source: patent US20050124625A1, “Piperazine derivatives and their use as modulators of nuclear hormone receptor function” (priority 2003, published 2005)
